In PMC8111572 (Inorganic chemistry, 2020):
Read-outs that look alike come from different tables or passages of the source. Marks after values point to notes of the source that are not given here.

Assays:
[1] = cited from earlier work
[2] = cited from earlier work; remark: listed apart in the source
[3] = protonation constant, cited from earlier work
[4] = −log [M]free when [M]total = 10^−6 M and [L]total = 10^−5 M at pH = 7.4; cited from earlier work
[5] = −log [M]free when [M]total = 10^−6 M and [L]total = 10^−5 M at pH = 7.4; cited from earlier work; remark: listed apart in the source
[6] = Ligand protonation constants by potentiometric titration; format: physicochemical; conditions: protonation constant, 25.0 °C, 0.1 M KCl
[7] = pLu value; format: binding; conditions: −log [M]free when [M]total = 10^−6 M and [L]total = 10^−5 M at pH = 7.4; calculated (Table S1)
[8] = pLa value; format: binding; conditions: −log [M]free when [M]total = 10^−6 M and [L]total = 10^−5 M at pH = 7.4; calculated (Table S1)

Cc1cccc(C)n1 [2,6-dimethylpyridinium cation]
pKa [1]: 6.7

O=C([O-])CN1CCN(CC(=O)[O-])CCN(CC(=O)[O-])CCN(CC(=O)[O-])CC1.[Gd+3] [Gd-DOTA]
kex298 (water exchange rate constant) [2]: 4.1e+06 s⁻¹

O=C([O-])CN(CCN(CC(=O)[O-])CC(=O)O)CCN(CC(=O)[O-])CC(=O)O.[Gd+3] [Gd-DTPA]
kex298 (water exchange rate constant) [2]: 3.3e+06 s⁻¹

O=C(O)CN(CCOCCN(CC(=O)O)CC(=O)O)CC(=O)O [OBETA]
log K1 ([3]; 0.1 M KCl): 9.34^e
log K2 ([3]; 0.1 M KCl): 8.62^e
log K3 ([3]; 0.1 M KCl): 3.19^e
log K4 ([3]; 0.1 M KCl): 2.19^e
log K5 ([3]; 0.1 M KCl): 1.77^e

O=C(O)CN(CCN(CC(=O)O)Cc1cccc(C(=O)O)n1)Cc1cccc(C(=O)O)n1 [Octapa]
pLa [4]: 19.7
pLu [5]: 19.8
log K1 ([3]; 0.15 M NaCl): 8.52
log K2 ([3]; 0.15 M NaCl): 5.40
log K3 ([3]; 0.15 M NaCl): 3.65
log K4 ([3]; 0.15 M NaCl): 2.97
log K5 ([3]; 0.15 M NaCl): 1.66
log K1 ([3]; 0.16 M NaCl): 8.58
log K2 ([3]; 0.16 M NaCl): 5.43
log K3 ([3]; 0.16 M NaCl): 3.75
log K4 ([3]; 0.16 M NaCl): 3.08
log K5 ([3]; 0.16 M NaCl): 2.21

CN(CCOCCN(C)Cc1cccc(C(=O)O)n1)Cc1cccc(C(=O)O)n1 [OxyMepa, 6,6’-(((oxybis(ethane-2,1-diyl))bis(methylazanediyl))bis(methylene))dipicolinic acid]
log K1 [6]: 8.72(1)
log K2 [6]: 7.81(2)
log K3 [6]: 3.09(2)
log K4 [6]: 2.35(4)

O=C(O)CN(CCOCCN(CC(=O)O)Cc1cccc(C(=O)O)n1)Cc1cccc(C(=O)O)n1 [Oxyaapa, 6,6’-(((oxybis(ethane-2,1-diyl))bis((carboxymethyl)azanediyl))bis(methylene))dipicolinic acid]
pLu [7]: 21.1
log K1 [6]: 8.47(4)
log K2 [6]: 7.63(2)
log K3 [6]: 3.66(4)
log K4 [6]: 2.90(1)
log K5 [6]: 1.77(12)
pLa [8]: 18.5

O=C(O)CN(Cc1cccc(CN(CC(=O)O)Cc2cccc(C(=O)O)n2)n1)Cc1cccc(C(=O)O)n1 [Pypa]
pLa [4]: 19.9
pLu [5]: 22.6

O=C(O)c1ccccn1 [pyridinium-2-carboxylic acid]
pKa [1]: 5.39
